The values that follow come from ChEMBL document CHEMBL1201862, “PubChem BioAssay data set” (2004).

Among the test systems are CCRF-CEM; U-251; UO-31; T47D; SF-295; SK-MEL-28; HCT-116; OVCAR-8; SW-620; HL-60; HT-29; SR; OVCAR-5; IGROV-1; NCI-H460; NCI/ADR-RES; K562; MDA-N; HOP-62; HOP-92.
Holding throughout (test): NCI anticancer screen, dose series, 48 h

Each structure is given as a SMILES string.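 Growth conditions: 96-well plates. Treatment: test compound, 48 hours, 5 concentrations. Analysis: linear interpolation between bracketing concentrations; unreached endpoints set to highest concentration. GI50 marks 50% less growth.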 Active and inactive are the calls of the source. Cut-off read from the data, not from the text of the source: active = GI50 up to about 1.1 µM and inactive = higher.

As to `O=c1[nH]c(=O)n(C/C=C/CBr)nc1Br`, the GI50 was 7.74 µM (inactive) in the assay on CCRF-CEM; 9.4 µM (inactive) in the assay on U-251; 18.5 µM (inactive) in the assay with UO-31; 12.6 µM (inactive) with T47D; 17.2 µM (inactive) in the assay on SF-295; 14.9 µM (inactive) in the assay with SK-MEL-28. Further, the GI50 in the assay with HCT-116 is 13 µM (inactive); with OVCAR-8 it was 14.5 µM (inactive); with SW-620 it was 14.4 µM (inactive); in the assay with HL-60 it was 5.87 µM (inactive); in the assay on HT-29 it was 12.9 µM (inactive); with SR, 3.08 µM (inactive). For the same compound, the GI50 is 16.9 µM (inactive) with OVCAR-5; 15.9 µM (inactive) with IGROV-1; 17.5 µM (inactive) with NCI-H460; 17.6 µM (inactive) in the assay on NCI/ADR-RES; 15.8 µM (inactive) in the assay with K562; 14.1 µM (inactive) in the assay with MDA-N. In addition, the GI50 with HOP-62 is 21.9 µM (inactive); in the assay on HOP-92 it was 13.4 µM (inactive).
Turning to `CCCCCCCCCCCCCCCCCCNc1ccn(C2OC(COP(=O)(O)OCC3OC(n4cc(F)c(=O)[nH]c4=O)CC3O)C(O)C2O)c(=O)n1` (configuration not stated), the GI50 in the assay with CCRF-CEM was 1.24 µM (inactive); in the assay with U-251, 6.28 µM (inactive); in the assay with UO-31, 0.498 µM (active); with T47D it was 27.9 µM (inactive); with SF-295, 0.47 µM (active); with SK-MEL-28 it was > 100 µM (inactive). Moreover, the GI50 with HCT-116 was 2.98 µM (inactive); with OVCAR-8, 1.36 µM (inactive); in the assay with SW-620 it was 42.8 µM (inactive); in the assay with HL-60 it was 0.678 µM (active); in the assay with HT-29, 5.38 µM (inactive); in the assay with SR, 0.337 µM (active). The GI50 in the assay with OVCAR-5 was 15 µM (inactive); in the assay with IGROV-1 it was 10.1 µM (inactive); with NCI-H460, 3.53 µM (inactive); in the assay on NCI/ADR-RES, 1.33 µM (inactive); with K562 it was 12.1 µM (inactive); in the assay with MDA-N, 46.6 µM (inactive). Moreover, the results for the GI50 in the assay with HOP-62 and in the assay with HOP-92 were 0.356 µM (active) and > 100 µM (inactive), respectively.
`CCC(C)C1NC(=O)C(NC(=O)C(CC(C)C)N(C)C(=O)[C@@H]2C=CCN2C(=O)[C@H](C)O)C(C)OC(=O)[C@H](Cc2ccc(OC)cc2)N(C)C(=O)[C@@H]2CCCN2C(=O)[C@H](CC(C)C)NC(=O)C(C)C(=O)[C@H](C(C)C)OC(=O)CC1O` (some centres not stated): the GI50 in the assay on CCRF-CEM was 0.00164 µM (active); in the assay on U-251, 0.00131 µM (active); in the assay with UO-31, 0.0138 µM (active); in the assay on T47D it was 0.0013 µM (active); in the assay on SF-295, 0.00248 µM (active); in the assay on SK-MEL-28, 0.00138 µM (active). The GI50 was 0.00103 µM (active) in the assay on HCT-116; 0.00467 µM (active) in the assay with OVCAR-8; 0.00308 µM (active) in the assay on SW-620; 0.00299 µM (active) with HL-60; 0.00252 µM (active) with HT-29; 0.000216 µM (active) with SR. Further, the GI50 in the assay on OVCAR-5 was 0.0137 µM (active); in the assay on IGROV-1, 0.00256 µM (active); with NCI-H460, 0.00215 µM (active); in the assay with NCI/ADR-RES, 0.0419 µM (active); in the assay with K562 it was 0.0021 µM (active); with MDA-N, 0.00293 µM (active). The GI50 in the assay on HOP-62 was 0.00303 µM (active); in the assay with HOP-92, 0.00643 µM (active).
Turning to `COC1(C)CP(=O)(OC(C)C)CC(C)=C1Cl` (configuration not stated), the GI50 in the assay on CCRF-CEM was 3.66 µM (inactive); in the assay with U-251, 10.6 µM (inactive); in the assay on UO-31 it was 17.8 µM (inactive); in the assay on T47D it was 13.6 µM (inactive); in the assay with SF-295, 11.8 µM (inactive); in the assay with SK-MEL-28 it was 21.7 µM (inactive). For the same compound, the GI50 is 6.37 µM (inactive) in the assay with HCT-116; 16.1 µM (inactive) with OVCAR-8; 14.4 µM (inactive) with SW-620; 10.9 µM (inactive) in the assay on HL-60; 12.3 µM (inactive) in the assay on HT-29; 7.19 µM (inactive) in the assay on SR. For the same compound, the GI50 in the assay with OVCAR-5 was 18.8 µM (inactive); in the assay on IGROV-1 it was 11.6 µM (inactive); in the assay on NCI-H460, 18.3 µM (inactive); in the assay on NCI/ADR-RES, 17.8 µM (inactive); in the assay on K562, 3.36 µM (inactive); in the assay with MDA-N, 13.2 µM (inactive). The GI50 is 17.9 µM (inactive) in the assay on HOP-62 and 11.2 µM (inactive) in the assay with HOP-92.
Turning to `COc1ccc2oc(=O)c(-c3nc4ccccc4s3)cc2c1`, the GI50 in the assay on CCRF-CEM is > 38.5 µM (inactive); in the assay with U-251 it was 15 µM (inactive); with UO-31, 13.9 µM (inactive); with T47D, 20.6 µM (inactive); in the assay with SF-295 it was 21.5 µM (inactive); in the assay on SK-MEL-28 it was > 59.3 µM (inactive). Moreover, the GI50 in the assay with HCT-116 was 11.6 µM (inactive); with OVCAR-8 it was 14.9 µM (inactive); in the assay with SW-620, 32.6 µM (inactive); in the assay on HL-60, > 100 µM (inactive); in the assay on HT-29, 13.6 µM (inactive); in the assay on SR, 22 µM (inactive). Moreover, the GI50 in the assay with OVCAR-5 is 23 µM (inactive); in the assay on IGROV-1, 12.8 µM (inactive); in the assay with NCI-H460, 16.6 µM (inactive); in the assay on NCI/ADR-RES, 28.8 µM (inactive); with K562 it was > 100 µM (inactive); in the assay with MDA-N, 20.1 µM (inactive). For the same compound, the GI50 was 14.2 µM (inactive) with HOP-62 and 19.7 µM (inactive) in the assay on HOP-92.
As for `NC1=Nc2ccccc2Sc2nc3ccccc3n21`, the GI50 in the assay on CCRF-CEM is 3.33 µM (inactive); in the assay with U-251, 5.9 µM (inactive); in the assay with UO-31, 7.5 µM (inactive); in the assay with T47D, 21.6 µM (inactive); in the assay with SF-295 it was 43.3 µM (inactive); in the assay on HCT-116, 5.47 µM (inactive). The GI50 in the assay on SW-620 is 46.1 µM (inactive); in the assay on HL-60 it was 2.4 µM (inactive); in the assay with HT-29 it was 9.12 µM (inactive); in the assay with SR it was 4.49 µM (inactive); with OVCAR-5, 8.15 µM (inactive); in the assay with IGROV-1 it was 34.4 µM (inactive). Besides, the GI50 in the assay on NCI-H460 was 17.2 µM (inactive); with NCI/ADR-RES, 27 µM (inactive); in the assay on K562, 9.38 µM (inactive); in the assay on MDA-N, 5.13 µM (inactive); in the assay with HOP-62, 52.5 µM (inactive); with HOP-92, 22.7 µM (inactive).
For the compound `NC(=S)N/N=C1/CCCC2CCCC[C@@H]12` (some centres not stated), the GI50 with CCRF-CEM was > 100 µM (inactive); in the assay on U-251 it was > 100 µM (inactive); in the assay on UO-31, > 100 µM (inactive); in the assay with T47D, 37.4 µM (inactive); with SF-295, > 100 µM (inactive); in the assay on SK-MEL-28 it was > 100 µM (inactive). Also, the GI50 with OVCAR-8, in the assay with SW-620, with HL-60, in the assay on HT-29, in the assay on SR and in the assay with OVCAR-5 was > 100 µM (inactive) in each case. Besides, the GI50 with IGROV-1, in the assay on NCI-H460, in the assay with NCI/ADR-RES, in the assay with K562, with MDA-N and in the assay on HOP-62 was > 100 µM (inactive) throughout. For the same compound, the GI50 in the assay on HOP-92 is > 100 µM (inactive).
